Measured values reported in US7345180B2, “Compound inhibiting dipeptidyl peptidase IV” (Sanwa Kagaku Kenkyusho Co., Ltd., priority 2003, dated 2008).

target: T1, DPP-IV (Homo sapiens, UniProt P27487); experiment: DPP-IV inhibition, Gly-Pro-MCA substrate, human plasma as enzyme source (Pharmacological Test Example 1); type: biochemical; details: 30 minutes at room temperature
T1 construct: from tissue; host or cells: human plasma (diluted 30-fold)
Description: In screening of DPP-IV inhibitor, the following method using glycyl-proline-4-methylcumalyl-7-amide (Gly-Pro-MCA) as substrate was used.
There after, human plasma (20 μl) diluted30-fold with the measurement buffer was added to each well, stirred and reacted at room temperature for 30 minutes in the dark.
Inhibitory activity on DPP-IV=100×(1−(Fs−Fb)/F100−Fb) F100:fluorescence intensity obtained by reaction with plasma. Fb:fluorescence intensity of a blank where the reaction was carried out with the reaction terminating solution added. Fs:fluorescence intensity obtained by adding the test substance.

T1 sequence (P27487 39-766 limits assumed): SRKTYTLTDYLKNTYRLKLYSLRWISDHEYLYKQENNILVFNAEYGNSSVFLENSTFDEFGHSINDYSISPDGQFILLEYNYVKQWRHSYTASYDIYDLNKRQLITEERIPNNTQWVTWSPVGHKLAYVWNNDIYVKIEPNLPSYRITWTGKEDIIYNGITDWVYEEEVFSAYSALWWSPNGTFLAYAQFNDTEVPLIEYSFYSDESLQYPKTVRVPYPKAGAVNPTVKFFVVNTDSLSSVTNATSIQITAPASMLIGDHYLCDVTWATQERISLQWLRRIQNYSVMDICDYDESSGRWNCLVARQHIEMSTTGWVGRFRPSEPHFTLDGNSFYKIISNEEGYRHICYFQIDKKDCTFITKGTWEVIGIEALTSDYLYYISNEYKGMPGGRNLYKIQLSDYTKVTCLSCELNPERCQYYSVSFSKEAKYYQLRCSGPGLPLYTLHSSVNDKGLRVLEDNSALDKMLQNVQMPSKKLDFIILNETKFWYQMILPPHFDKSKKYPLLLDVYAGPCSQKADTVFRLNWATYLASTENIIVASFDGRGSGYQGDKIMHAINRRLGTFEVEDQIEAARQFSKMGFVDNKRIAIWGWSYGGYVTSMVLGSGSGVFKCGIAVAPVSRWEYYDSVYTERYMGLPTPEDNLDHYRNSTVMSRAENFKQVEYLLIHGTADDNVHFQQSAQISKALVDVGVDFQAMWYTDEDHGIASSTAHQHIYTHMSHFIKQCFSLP

Row | SMILES | IC50
1 | N#C[C@@H]1CCCN1C(=O)CNCCNC(=O)c1cnc2n(c1=O)CCS2 [Compound 126] | 31 nM
2 | COc1c(C(=O)NCC(C)(C)NCC(=O)N2CCC[C@H]2C#N)c(C)nc2cc(C)nn12 [Example 4] | 87 nM
3 | COc1c(C(=O)NCC(C)(C)NCC(=O)N2CCC[C@H]2C#N)c(C)nc2cc(-c3ccccc3)nn12 [Example 10] | 85 nM
4 | Cc1cc2nc(O)c(C(=O)NCC(C)(C)NCC(=O)N3CCC[C@H]3C#N)cn2n1 [Example 11] | 68 nM
5 | CC(C)(CNC(=O)c1ccc2[nH]ccc2c1)NCC(=O)N1CCC[C@H]1C#N [Example 16] | 33 nM
6 | Cn1cc(C(=O)NCC(C)(C)NCC(=O)N2CCC[C@H]2C#N)c2ccccc21 [Example 18] | 36 nM
7 | Cn1ccc2c(C(=O)NCC(C)(C)NCC(=O)N3CCC[C@H]3C#N)cccc21 [Example 19] | 50 nM
8 | Cn1ccc2cc(C(=O)NCC(C)(C)NCC(=O)N3CCC[C@H]3C#N)ccc21 [Example 20] | 52 nM
9 | Cn1ccc2cccc(C(=O)NCC(C)(C)NCC(=O)N3CCC[C@H]3C#N)c21 [Example 22] | 73 nM
10 | COc1cccc2c1cc(C(=O)NCC(C)(C)NCC(=O)N1CCC[C@H]1C#N)n2C [Example 23] | 82 nM
11 | COc1ccc2cc(C(=O)NCC(C)(C)NCC(=O)N3CCC[C@H]3C#N)n(C)c2c1 [Example 24] | 43 nM
12 | COc1cc(OC)c2cc(C(=O)NCC(C)(C)NCC(=O)N3CCC[C@H]3C#N)n(C)c2c1 [Example 25] | 48 nM
13 | COc1ccc2c(c1)c(C(=O)NCC(C)(C)NCC(=O)N1CCC[C@H]1C#N)c(C)n2C [Example 26] | 33 nM
14 | COc1cc(C(=O)NCC(C)(C)NCC(=O)N2CCC[C@H]2C#N)cc2ccn(C)c12 [Example 28] | 78 nM
15 | CC(C)Cn1cc(C(=O)NCC(C)(C)NCC(=O)N2CCC[C@H]2C#N)c2ccccc21 [Example 30] | 89 nM
16 | CC(C)(C)Cn1ccc2cc(C(=O)NCC(C)(C)NCC(=O)N3CCC[C@H]3C#N)ccc21 [Example 31] | 49 nM

Row | SMILES | IC50
17 | CC(C)Cn1ccc2cc(C(=O)NCC(C)(C)NCC(=O)N3CCC[C@H]3C#N)ccc21 [Example 32] | 48 nM
18 | CC(C)(CNC(=O)c1cn(COCc2ccccc2)c2ccccc12)NCC(=O)N1CCC[C@H]1C#N [Example 33] | 71 nM
19 | CC(=O)OCn1cc(C(=O)NCC(C)(C)NCC(=O)N2CCC[C@H]2C#N)c2ccccc21 [Example 35] | 37 nM
20 | CC(C)(CNC(=O)c1ccc2c(ccn2COCc2ccccc2)c1)NCC(=O)N1CCC[C@H]1C#N [Example 36] | 45 nM
21 | COc1ccc2c(c1)c(C(=O)NCC(C)(C)NCC(=O)N1CCC[C@H]1C#N)cn2CC(C)(C)C [Example 39] | 73 nM
22 | CN1CCc2cc(C(=O)NCC(C)(C)NCC(=O)N3CCC[C@H]3C#N)ccc21 [Example 44] | 37 nM
23 | CC(C)(CNC(=O)c1ccc2c(ccn2C(=O)c2ccccc2)c1)NCC(=O)N1CCC[C@H]1C#N [Example 48] | 31 nM
24 | COc1cc(C(=O)NCC(C)(C)NCC(=O)N2CCC[C@H]2C#N)cc2sc(C(F)(F)F)nc12 [Example 53] | 48 nM
25 | Cn1cnc2cc(C(=O)NCC(C)(C)NCC(=O)N3CCC[C@H]3C#N)ccc21 [Example 56] | 30 nM
26 | Cc1nc2ccc(C(=O)NCC(C)(C)NCC(=O)N3CCC[C@H]3C#N)cc2o1 [Example 57] | 35 nM
27 | CC(C)(CNC(=O)C1Cc2ccccc2C1)NCC(=O)N1CCC[C@H]1C#N [Example 59] | 50 nM
28 | CC(C)(CC(=O)N1Cc2ccc(C(C)(C)C)cc2C1)NCC(=O)N1CCC[C@H]1C#N [Example 66] | 50 nM
29 | CC(C)(CC(=O)N1Cc2cccc(O)c2C1)NCC(=O)N1CCC[C@H]1C#N [Example 70] | 32 nM
30 | CC(C)(CC(=O)N1Cc2ccc(C(F)(F)F)cc2C1)NCC(=O)N1CCC[C@H]1C#N [Example 72] | 39 nM
31 | CC(C)(CC(=O)N1Cc2c(Cl)c(Cl)c(Cl)c(Cl)c2C1)NCC(=O)N1CCC[C@H]1C#N [Example 73] | 94 nM
32 | CC(C)(CC(=O)N1Cc2cc(Cl)c(Cl)cc2C1)NCC(=O)N1CCC[C@H]1C#N [Example 74] | 44 nM

Stronger by IC50, values ahead:

Row | IC50 | SMILES
33 | 26 nM | Cc1nn(C)c2ncc(C(=O)NCCNCC(=O)N3CCC[C@H]3C#N)cc12 [Compound 122]
34 | 24 nM | CC(C)(CNC(=O)c1cnc2cc(CO)nn2c1)NCC(=O)N1CCC[C@H]1C#N [Example 13]
35 | 28 nM | CC(C)(CNC(=O)c1c[nH]c2ccccc12)NCC(=O)N1CCC[C@H]1C#N [Example 15]
36 | 28 nM | Cn1ccc2ccc(C(=O)NCC(C)(C)NCC(=O)N3CCC[C@H]3C#N)cc21 [Example 21]
37 | 21 nM | COc1ccc2c(c1)c(C(=O)NCC(C)(C)NCC(=O)N1CCC[C@H]1C#N)cn2C [Example 27]
38 | 23 nM | COCn1cc(C(=O)NCC(C)(C)NCC(=O)N2CCC[C@H]2C#N)c2ccccc21 [Example 34]
39 | 17 nM | CC(C)(CNC(=O)c1ccc2c(ccn2CO)c1)NCC(=O)N1CCC[C@H]1C#N [Example 37]
40 | 25 nM | COCn1ccc2cc(C(=O)NCC(C)(C)NCC(=O)N3CCC[C@H]3C#N)ccc21 [Example 38]
41 | 25 nM | CC(C)(C)Cn1cc(C(=O)NCC(C)(C)NCC(=O)N2CCC[C@H]2C#N)c2cc(O)ccc21 [Example 41]
42 | 27 nM | CC(C)(CNC(=O)c1cn(COC(=O)C(C)(C)C)c2ccccc12)NCC(=O)N1CCC[C@H]1C#N [Example 42]
43 | 16 nM | CC(C)(CNC(=O)c1ccc2c(ccn2CC(=O)OC(C)(C)C)c1)NCC(=O)N1CCC[C@H]1C#N [Example 43]
44 | 28 nM | CC(=O)n1cc(C(=O)NCC(C)(C)NCC(=O)N2CCC[C@H]2C#N)c2ccccc21 [Example 45]
45 | 19 nM | CC(=O)N1CCc2cc(C(=O)NCC(C)(C)NCC(=O)N3CCC[C@H]3C#N)ccc21 [Example 46]
46 | 24 nM | CC(=O)n1ccc2cc(C(=O)NCC(C)(C)NCC(=O)N3CCC[C@H]3C#N)ccc21 [Example 47]
47 | 20 nM | CC(C)(CNC(=O)c1ccc2c(ccn2C(=O)C(C)(C)C)c1)NCC(=O)N1CCC[C@H]1C#N [Example 49]
48 | 20 nM | CC(C)(CNC(=O)c1ccc2c(c1)CCN2C(=O)C(F)(F)F)NCC(=O)N1CCC[C@H]1C#N [Example 50]
49 | 26 nM | CC(C)(CNC(=O)c1ccc2ncsc2c1)NCC(=O)N1CCC[C@H]1C#N [Example 51]
50 | 24 nM | CC(C)(CNC(=O)c1ccc2[nH]c(=O)sc2c1)NCC(=O)N1CCC[C@H]1C#N [Example 55]
51 | 18 nM | CC(C)(CC(=O)N1Cc2ccc(F)cc2C1)NCC(=O)N1CCC[C@H]1C#N [Example 63]
52 | 24 nM | CC(C)(CC(=O)N1Cc2ccc(Br)cc2C1)NCC(=O)N1CCC[C@H]1C#N [Example 64]
53 | 11 nM | CC(C)(CC(=O)N1Cc2ccc(Cl)cc2C1)NCC(=O)N1CCC[C@H]1C#N [Example 65]
54 | 7 nM | CC(C)(CC(=O)N1Cc2cccc(F)c2C1)NCC(=O)N1CCC[C@H]1C#N [Example 67]
55 | 16 nM | Cc1cccc2c1CN(C(=O)CC(C)(C)NCC(=O)N1CCC[C@H]1C#N)C2 [Example 68]
56 | 21 nM | CC(C)(CC(=O)N1Cc2c(Cl)ccc(Cl)c2C1)NCC(=O)N1CCC[C@H]1C#N [Example 69]
57 | 2 nM | CC(C)(CC(=O)N1Cc2ccc(CO)cc2C1)NCC(=O)N1CCC[C@H]1C#N [Example 71]
58 | 14 nM | Cc1cc(O)c2c(c1)CN(C(=O)CC(C)(C)NCC(=O)N1CCC[C@H]1C#N)C2 [Example 75]
